Laboratory results from article PMC10328743, “5-Nitro-3-(2-(4-phenylthiazol-2-yl)hydrazineylidene)indolin-2-one derivatives inhibit HIV-1 replication by a multitarget mechanism of action” (Frontiers in Cellular and Infection Microbiology, 2023).

Test system: HIV-1
Experiment: Quantification of viral DNA genomes by qPCR in infected MT4 cells
Type: cell-based
Details: single HIV-1 replication cycle; for total viral DNA: increasing concentrations
Protocol: Quantitative PCR (qPCR) was performed as described previously ([Munir et al., 2013]). […] Cells were washed in phosphate-buffered saline (PBS), and dry cell pellets were frozen at −80°C until use. DNA from samples was purified with QIAamp DNA Blood mini kit (Qiagen, Valencia, CA, USA) according to the manufacturer’s instructions. Quantification of total viral DNAs, 2-LTR circular viral DNA (2-LTRc), and integrated DNAs was performed on a LightCycler instrument (Roche Diagnostics, Basel, Switzerland) using the second-derivative-maximum method provided by the LightCycler quantification software, version 3.5 (Roche Diagnostics). Amplification of the β-globin gene (two copies per diploid cell) was performed to normalize the results using the commercially available materials (Control kit DNA; Roche Diagnostics). The quantification of the results for 2-LTRc and total HIV-1 DNA was expressed as copy numbers per µg DNA. Integrated HIV-1 DNA was expressed as a percentage of wt control. Data were represented by mean and standard deviation of two independent experiments; p-values were calculated between the infected and infected-treated conditions by unpaired, two-tailed t-tests using GraphPad Prism Version 9.5.1 software (GraphPad Software, Inc., San Diego, CA, USA). Figures were drawn with GraphPad Prism Version 9.5.1.

## O=C1Nc2ccc(Cl)cc2/C1=N/Nc1nc(-c2ccc(Cl)c(Cl)c2)cs1 [9b]
  DNA 2LTRc levels: no increase
  total viral DNA: decrease in total viral DNA

## Cc1ccc(-c2csc(N/N=C3\C(=O)Nc4ccc([N+](=O)[O-])cc43)n2)cc1 [10a]
  DNA 2LTRc levels: marked increase
  total viral DNA: decrease in total viral DNA
48 h
  integrated viral DNA: significantly more marked effect than 9b
